Data published in US12404279B2, “Deubiquitinase inhibitors and methods of use thereof” (Molecure S.A., priority 2021, dated 2025).
Counter-ions that a name gives are not always drawn.

Molecular target: full-length USP7 (Homo sapiens (Human), UniProt Q93009)
Experiment: Enzymatic assay to determine IC50 of USP7 inhibitors (Ubiquitin-Rhodamine 110 cleavage)
Type: biochemical
Details: for IC50: 0.5 nM USP7, 0.5 μM Ubiquitin-Rhodamine 110, 45 min at 37° C.; for inhibition at 1 µM: at 1 μM of the test compound, given where IC50 not determined yet, read-out: percent value of inhibition of USP7 activity
Summary of the method: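 Enzyme: 0.5 nM full-length USP7 in HEPES pH 7.5 buffer with NaCl, DTT, BSA and Tween20, given 15 min at room temperature with DTT before compounds were added.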

Chain of full-length USP7 (Q93009 whole entry): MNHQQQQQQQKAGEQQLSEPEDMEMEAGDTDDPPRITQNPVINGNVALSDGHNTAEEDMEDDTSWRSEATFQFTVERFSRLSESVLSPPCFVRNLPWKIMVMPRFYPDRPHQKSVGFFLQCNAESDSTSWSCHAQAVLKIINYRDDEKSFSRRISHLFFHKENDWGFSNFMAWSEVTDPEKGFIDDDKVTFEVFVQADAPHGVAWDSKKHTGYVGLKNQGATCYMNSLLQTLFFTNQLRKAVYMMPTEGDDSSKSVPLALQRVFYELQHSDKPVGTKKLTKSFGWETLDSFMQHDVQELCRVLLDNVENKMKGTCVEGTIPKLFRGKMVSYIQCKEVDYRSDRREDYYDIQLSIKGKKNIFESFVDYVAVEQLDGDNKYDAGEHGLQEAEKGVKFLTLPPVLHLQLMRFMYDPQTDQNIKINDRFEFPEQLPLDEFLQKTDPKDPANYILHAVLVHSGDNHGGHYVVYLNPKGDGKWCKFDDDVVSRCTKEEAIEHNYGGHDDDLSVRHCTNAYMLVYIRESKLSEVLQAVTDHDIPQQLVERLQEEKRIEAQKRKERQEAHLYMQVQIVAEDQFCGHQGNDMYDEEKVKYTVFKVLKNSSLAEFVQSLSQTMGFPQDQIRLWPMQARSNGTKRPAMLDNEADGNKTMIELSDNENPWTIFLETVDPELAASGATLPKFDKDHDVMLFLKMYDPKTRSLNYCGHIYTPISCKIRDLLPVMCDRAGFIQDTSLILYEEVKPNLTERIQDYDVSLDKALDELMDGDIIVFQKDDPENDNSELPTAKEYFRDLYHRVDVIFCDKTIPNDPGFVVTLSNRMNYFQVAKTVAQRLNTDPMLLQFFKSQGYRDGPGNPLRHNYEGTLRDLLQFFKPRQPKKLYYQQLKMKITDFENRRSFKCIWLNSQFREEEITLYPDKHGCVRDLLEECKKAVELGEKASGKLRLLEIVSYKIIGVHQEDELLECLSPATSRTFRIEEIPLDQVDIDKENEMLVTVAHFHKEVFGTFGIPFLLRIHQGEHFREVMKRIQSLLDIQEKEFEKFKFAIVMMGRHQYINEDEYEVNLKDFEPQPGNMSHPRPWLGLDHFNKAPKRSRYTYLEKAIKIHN

Row | Compound | IC50 [µM] | inhibition at 1 µM [%]
1 | CN[C@H]1CCN(Cc2c(C)cc(C(F)(F)F)nc2-c2ccnc3cc(CN4C(=O)C5C(C4=O)C5(C)C)sc23)C1 (stereo partly drawn) [Example 160, 6,6-dimethyl-3-((7-(4-methyl-3-(((S)-3-(methylamino)pyrrolidin-1-yl)methyl)-6-(trifluoromethyl)pyridin-2-yl)thieno[3,2-b]pyridin-2-yl)methyl)-3-azabicyclo[3.1.0]hexane-2,4-dione hydrochloride] | < 0.5 | –
2 | CC1(C)C2C(=O)N(Cc3cc4nccc(-c5cc(Cl)cnc5O[C@H]5CCCNC5)c4s3)C(=O)C21 (stereo partly drawn) [Example 161, 3-((7-(5-chloro-2-(((S)-piperidin-3-yl)oxy)pyridin-3-yl)thieno[3,2-b]pyridin-2-yl)methyl)-6,6-dimethyl-3-azabicyclo[3.1.0]hexane-2,4-dione dihydrochloride] | – | 50 to 70
3 | Cc1c(Cl)cc(-c2ccnc3cc(CN4C(=O)C5C(C4=O)C5(C)C)sc23)n1C[C@@H]1CNCCO1 (stereo partly drawn) [Example 162, 3-((7-(4-chloro-5-methyl-1-(((S)-morpholin-2-yl)methyl)-1H-pyrrol-2-yl)thieno[3,2-b]pyridin-2-yl)methyl)-6,6-dimethyl-3-azabicyclo[3.1.0]hexane-2,4-dione hydrochloride] | < 0.5 | –
4 | Cc1cc(C(F)(F)F)nc(-c2ccnc3cc(CN4C(=O)C5C(C4=O)C5(C)C)sc23)c1C(=O)N1C[C@@H]2CCN[C@@H]2C1 (stereo partly drawn) [Example 163, 6,6-dimethyl-3-((7-(4-methyl-3-((3aS,6aS)-octahydropyrrolo[3,4-b]pyrrole-5-carbonyl)-6-(trifluoromethyl)pyridin-2-yl)thieno[3,2-b]pyridin-2-yl)methyl)-3-azabicyclo[3.1.0]hexane-2,4-dione hydrochloride] | 0.5 to 1 | –
5 | CC1(C)C2C(=O)N(Cc3cc4nccc(-c5cc(Cl)cnc5O[C@H]5CCNC5)c4s3)C(=O)C21 (stereo partly drawn) [Example 164, 3-((7-(5-chloro-2-(((S)-pyrrolidin-3-yl)oxy)pyridin-3-yl)thieno[3,2-b]pyridin-2-yl)methyl)-6,6-dimethyl-3-azabicyclo[3.1.0]hexane-2,4-dione dihydrochloride] | – | < 20
6 | Cc1cc(C(F)(F)F)nc(-c2ccnc3cc(CN4C(=O)C5C(C4=O)C5(C)C)sc23)c1CC1NCCNC1=O (stereo not shown) [Example 165, 6,6-dimethyl-3-((7-(4-methyl-3-((3-oxopiperazin-2-yl)methyl)-6-(trifluoromethyl)pyridin-2-yl)thieno[3,2-b]pyridin-2-yl)methyl)-3-azabicyclo[3.1.0]hexane-2,4-dione hydrochloride] | – | 20 to 49
7 | CC1(C)C2C(=O)N(Cc3cc4nccc(-c5cc(C(F)(F)F)cnc5CC5NCCNC5=O)c4s3)C(=O)C21 (stereo not shown) [Example 166, 6,6-dimethyl-3-((7-(2-((3-oxopiperazin-2-yl)methyl)-5-(trifluoromethyl)pyridin-3-yl)thieno[3,2-b]pyridin-2-yl)methyl)-3-azabicyclo[3.1.0]hexane-2,4-dione hydrochloride] | – | < 20
8 | Cc1c([N+](=O)[O-])cc(-c2ccnc3cc(CN4C(=O)C5C(C4=O)C5(C)C)sc23)n1C[C@H]1CNCCO1 (stereo partly drawn) [Example 167, 6,6-dimethyl-3-((7-(5-methyl-1-(((R)-morpholin-2-yl)methyl)-4-nitro-1H-pyrrol-2-yl)thieno[3,2-b]pyridin-2-yl)methyl)-3-azabicyclo[3.1.0]hexane-2,4-dione hydrochloride] | < 0.5 | –
9 | CN[C@@H]1CN(C(=O)c2c(C)cc(C(F)(F)F)nc2-c2ccnc3cc(CN4C(=O)C5C(C4=O)C5(C)C)sc23)C[C@H]1C (stereo partly drawn) [Example 168, 6,6-dimethyl-3-((7-(4-methyl-3-((3R,4S)-3-methyl-4-(methylamino)pyrrolidine-1-carbonyl)-6-(trifluoromethyl)pyridin-2-yl)thieno[3,2-b]pyridin-2-yl)methyl)-3-azabicyclo[3.1.0]hexane-2,4-dione hydrochloride] | < 0.5 | –
10 | Cc1cc(C(F)(F)F)nc(-c2ccnc3cc(CN4C(=O)C5C(C4=O)C5(C)C)sc23)c1C(=O)N1C[C@@H](N)[C@@H](F)C1 (stereo partly drawn) [Example 169, 3-((7-(3-((3R,4S)-3-amino-4-fluoropyrrolidine-1-carbonyl)-4-methyl-6-(trifluoromethyl)pyridin-2-yl)thieno[3,2-b]pyridin-2-yl)methyl)-6,6-dimethyl-3-azabicyclo[3.1.0]hexane-2,4-dione hydrochloride] | < 0.5 | –
11 | Cc1cc(C(F)(F)F)nc(-c2ccnc3cc(CN4C(=O)C5C(C4=O)C5(C)C)sc23)c1C(=O)N1C[C@H](N)[C@@H](F)C1 (stereo partly drawn) [Example 170, 3-((7-(3-((3S,4S)-3-amino-4-fluoropyrrolidine-1-carbonyl)-4-methyl-6-(trifluoromethyl)pyridin-2-yl)thieno[3,2-b]pyridin-2-yl)methyl)-6,6-dimethyl-3-azabicyclo[3.1.0]hexane-2,4-dione hydrochloride] | < 0.5 | –
12 | Cc1cc(C(F)(F)F)nc(-c2ccnc3cc(CN4C(=O)C5C(C4=O)C5(C)C)sc23)c1C(=O)N1C[C@@H](F)[C@@H](N)C1 (stereo partly drawn) [Example 171, 3-((7-(3-((3S,4R)-3-amino-4-fluoropyrrolidine-1-carbonyl)-4-methyl-6-(trifluoromethyl)pyridin-2-yl)thieno[3,2-b]pyridin-2-yl)methyl)-6,6-dimethyl-3-azabicyclo[3.1.0]hexane-2,4-dione hydrochloride] | – | 50 to 70
13 | Cc1cc(C(F)(F)F)nc(-c2ccnc3cc(CN4C(=O)C5C(C4=O)C5(C)C)sc23)c1C(=O)N1C[C@@H](C)[C@H](N(C)C)C1 (stereo partly drawn) [Example 172, 3-((7-(3-((3S,4R)-3-(dimethylamino)-4-methylpyrrolidine-1-carbonyl)-4-methyl-6-(trifluoromethyl)pyridin-2-yl)thieno[3,2-b]pyridin-2-yl)methyl)-6,6-dimethyl-3-azabicyclo[3.1.0]hexane-2,4-dione hydrochloride] | – | > 70
14 | Cc1cc(C(F)(F)F)nc(-c2ccnc3cc(CN4C(=O)C5C(C4=O)C5(C)C)sc23)c1C(=O)N1C[C@@H](N)C2(CC2)C1 (stereo partly drawn) [Example 173, 3-((7-(3-((S)-7-amino-5-azaspiro[2.4]heptane-5-carbonyl)-4-methyl-6-(trifluoromethyl)pyridin-2-yl)thieno[3,2-b]pyridin-2-yl)methyl)-6,6-dimethyl-3-azabicyclo[3.1.0]hexane-2,4-dione hydrochloride] | < 0.5 | –
15 | CN[C@H]1CCN(C(=O)c2c(C)cc(C(F)(F)F)nc2-c2ccnc3c(F)c(CN4C(=O)C5C(C4=O)C5(C)C)sc23)C1 (stereo partly drawn) [Example 174, 3-((3-fluoro-7-(4-methyl-3-((S)-3-(methylamino)pyrrolidine-1-carbonyl)-6-(trifluoromethyl)pyridin-2-yl)thieno[3,2-b]pyridin-2-yl)methyl)-6,6-dimethyl-3-azabicyclo[3.1.0]hexane-2,4-dione hydrochloride] | – | 50 to 70
16 | Cc1cc(Cl)cc(-c2ccnc3cc(CN4C(=O)C5C(C4=O)C5(C)C)sc23)c1NC1CCNC1 (stereo not shown) [Example 175, 3-((7-(5-chloro-3-methyl-2-(pyrrolidin-3-ylamino)phenyl)thieno[3,2-b]pyridin-2-yl)methyl)-6,6-dimethyl-3-azabicyclo[3.1.0]hexane-2,4-dione hydrochloride] | < 0.5 | –
17 | Cc1c(N)cc(-c2ccnc3cc(CN4C(=O)C5C(C4=O)C5(C)C)sc23)n1C[C@@H]1CNCCO1 (stereo partly drawn) [Example 176, 3-((7-(4-amino-5-methyl-1-(((S)-morpholin-2-yl)methyl)-1H-pyrrol-2-yl)thieno[3,2-b]pyridin-2-yl))methyl)-6,6-dimethyl-3-azabicyclo[3.1.0]hexane-2,4-dione hydrochloride] | – | < 20
18 | Cc1c(N(C)C)cc(-c2ccnc3cc(CN4C(=O)C5C(C4=O)C5(C)C)sc23)n1C[C@@H]1CNCCO1 (stereo partly drawn) [Example 177, 3-((7-(4-(dimethylamino)-5-methyl-1-(((S)-morpholin-2-yl)methyl)-1H-pyrrol-2-yl)thieno[3,2-b]pyridin-2-yl)methyl)-6,6-dimethyl-3-azabicyclo[3.1.0]hexane-2,4-dione hydrochloride] | – | < 20
19 | Cc1cc(Cl)cc(-c2ccnc3cc(CC4NCCNC4=O)sc23)c1O[C@H]1CCCNC1 (stereo partly drawn) [Example 178, 3-((7-(5-chloro-3-methyl-2-(((S)-piperidin-3-yl)oxy)phenyl)thieno[3,2-b]pyridin-2-yl)methyl)piperazin-2-one hydrochloride] | < 0.5 | –
20 | Cc1cc(Cl)cc(-c2ccnc3cc(CC4C(=O)NCC4O)sc23)c1O[C@H]1CCCNC1 (stereo partly drawn) [Example 179, 3-((7-(5-chloro-3-methyl-2-(((S)-piperidin-3-yl)oxy)phenyl)thieno[3,2-b]pyridin-2-yl)methyl)-4-hydroxypyrrolidin-2-one 2,2,2-trifluoroacetate] | < 0.5 | –
21 | N-(2-(2-((6,6-dimethyl-2,4-dioxo-3-azabicyclo[3.1.0]hexan-3-yl)methyl)thieno[3,2-b]pyridin-7-yl)-4-methyl-6-(trifluoromethyl)pyridin-3-yl)azetidine-3-carboxamide 2,2,2-trifluoroacetate [Example 28] | < 0.5 | –
22 | ethyl 5-(2-((6,6-dimethyl-2,4-dioxo-3-azabicyclo[3.1.0]hexan-3-yl)methyl)thieno[3,2-b]pyridin-7-yl)-2-methyl-1-(((S)-morpholin-2-yl)methyl)-1H-pyrrole-3-carboxylate 2,2,2-trifluoroacetate [Example 148] | 1 to 10 | –
